From patent publication US12291522B2, “Galectin-3 inhibitors” (BRISTOL-MYERS SQUIBB COMPANY, priority 2020, dated 2025)
Where two headings read alike, the source gives them in different places.

What was measured:
[1] = target: His-tagged recombinant human Gal-3 (hGal-3) (Homo sapiens, UniProt P17931); assay: Gal-3 HTRF assay (His-tagged hGal-3 / B-ASF); format: binding; conditions: 15 nM hGal-3, 15 nM B-ASF
Method: ASSAY BUFFER Composition: 25 mM HEPES, 100 mM NaCl, 0.005% Tween 20, 0.05% BSA prepared in sterile water (all reagents from Sigma).
• Positive Control: 100% DMSO (1 μL)+His-tagged hGal-3 (20 μL)+B-ASF (20 μL)+Anti-His Terbium Antibody (5 μL)+Strep d2 Antibody (5 μL). • Negative Control: 100% DMSO (1 μL)+His-tagged hGal-3 (20 μL)+Anti His Terbium Antibody (5 μL)+Strep d2 Aantibody (5 μL). Stocks Preparation:
PROTOCOL: The Gal-3 assays were performed in 384 white Opti plates in three replicates at room temperature with gentle shaking at 250-300 rpmFrom the original stocks, […] working stock concentrations of His-tagged recombinant human Gal-3 (hGal-3) and that of B-ASF were prepared. From the working stock, 20 μL of hGal-3 (15 nM) and 20 μL B-ASF (15 nM) were added to the plates. In Negative Control, only hGal-3 was added. A concentration range of 50× working stocks were prepared for the compounds in 100% DMSO. Aliquots of luL of the compounds were added to the wells and pre-incubated with 20 μL hGal-3 per well for 30 minutes Then 20 μL B-ASF wereadded and incubated for another 1 hour. To detect the signal, 5 μL (final conc. of 1.0 nM) terbium labelled Anti-His antibody was added and incubated for 30 min followed by adding 5 μL (final conc. of 20 nM) Streptavidin d2 and incubation for another 1 hour. The assay signal was detected using HTRF screen protocol (Excitation wavelength=340 nm, emission wavelength=615 nm/665 nm) on Envision 2104 Multilabel Reader. Data analysed using Toolset and Curve Master. Results are reported in the experimental section (IC50 in μM).

[2] = target: T1, Gal3 (Human Galectin-3) in THP-1 cells (Homo sapiens, UniProt P17931); assay: ELISA Gal3 Degradation Assay in THP-1 Cells; format: cell-based; conditions: 48 hours, culture media Gal3 by ELISA
T1 construct: host or cells: THP-1
T1 sequence (P17931 whole entry): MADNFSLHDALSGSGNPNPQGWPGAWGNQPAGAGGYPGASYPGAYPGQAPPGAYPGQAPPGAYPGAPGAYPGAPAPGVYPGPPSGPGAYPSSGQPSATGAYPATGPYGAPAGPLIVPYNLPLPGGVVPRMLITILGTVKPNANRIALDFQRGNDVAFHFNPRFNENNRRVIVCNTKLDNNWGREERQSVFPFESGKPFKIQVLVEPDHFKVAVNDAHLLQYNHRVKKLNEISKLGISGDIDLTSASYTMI
Method: [formula] ELISA Gal3 Degradation Assay in THP-1 Cells
THP-1 cells (ATCC, Cat #TIB-202), a human monocyte cell line derived from leukemia were plated at 2E6 cells/mL in 200 uL/well of RPMI 1640 (ThermoFisher, Cat #11835) in 96-well plates. Cells were treated with DMSO as a control and various concentrations of compounds for 48 hours. After the treatment, the culture media were collected. The PBS washed cell pellets were lysed in Lysis Buffer (Cell Signaling, Cat #9803) supplemented with 1XProtease Inhibitor Cocktail (Cell Signaling, Cat #5872). Gal3 levels in culture media and cell lysates were quantified by ELISA assays (Human Galectin-3 DuoSet ELISA kit, R&D Systems, Cat #DY1154) according to manufacturer's instructions. The cell culture media were also used for the assessment of cellular toxicity (LDH Assay kit, R&D Systems, DY994). The IC50 (degradation concentration at 50%) values were calculated based on the cellular Gal3 protein levels using DMSO as the control.

[3] = target: T2, hCRBN (NanoLuc-CRBN fusion construct in HEK-293 cells) (Homo sapiens, UniProt Q96SW2); assay: CRBN BRET Target Engagement; format: cell-based; conditions: NanoLuc-CRBN transfected HEK-293 cells, BRET with CRBN Probe
T2 construct: expressed in transfected cells; host or cells: HEK-293
T2 sequence (Q96SW2 whole entry, the tested form may be a part): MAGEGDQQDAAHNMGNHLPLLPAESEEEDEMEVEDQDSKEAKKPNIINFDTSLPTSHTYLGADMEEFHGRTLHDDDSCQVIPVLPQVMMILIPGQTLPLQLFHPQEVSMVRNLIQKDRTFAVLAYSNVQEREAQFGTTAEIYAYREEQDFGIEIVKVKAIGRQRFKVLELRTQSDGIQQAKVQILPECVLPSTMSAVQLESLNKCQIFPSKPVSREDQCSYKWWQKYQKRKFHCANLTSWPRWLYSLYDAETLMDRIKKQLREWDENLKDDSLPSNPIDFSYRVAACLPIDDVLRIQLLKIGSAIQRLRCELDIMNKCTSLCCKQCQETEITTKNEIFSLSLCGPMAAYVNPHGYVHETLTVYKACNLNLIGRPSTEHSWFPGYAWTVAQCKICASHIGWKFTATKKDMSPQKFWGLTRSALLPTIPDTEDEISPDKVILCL
Method: CRBN BRET Target Engagement (hCRBN IC50 (μM))
NanoLuc-CRBN fusion construct was transfected in HEK-293 cells using FuGENE HD (Promega) according to the manufacturer's protocol. In brief, Nluc-CRBN was diluted into Transfection Carrier DNA (Promega) 1:10 (mass/mass), to which FuGENE HD was 1:3 (μg DNA:μL FuGENE HD). One part (vol) of DNA:FuGENE HD complexes were combined with 20 parts (vol) of HEK-293 cells suspended at a density of […]. Cells were incubated for ˜20 hr at 37° C./5% CO2. Following transfection, cells were washed and resuspended at 200,000 cells/mL in OptiMEM without phenol red (Gibco).
For BRET measurements, cells were seeded in a 384-well nonbinding surface plate (Corning) plate for a final count of 10,000 cells/well. Compounds were dissolved at 10 mM in dimethylsulfoxide (DMSO) and evaluated at eleven concentrations using a high concentration of […]. CRBN Probe was used for equilibrium measurements, employing a final concentration of approximately EC50-80. For live-cell measurements, 20 nM of CRBN Probe was added. For the live-cell assay conditions, the plates were incubated for 2 hours at 37° C./5% CO2. NanoBRET NanoGlo Substrate and Extracellular Nanoluc Inhibitor (Promega) were added according to manufacturer's guidelines. For lytic cell measurements, digitonin was added to the cells to a final concentration of 50 μg/mL and 20 nM of CRBN Probe was added. To measure NanoBRET in permeabilized cells, extracellular Nluc inhibitor was omitted during the detection step. For all BRET experiments, the Envision 2015 (Perkin Elmer) equipped with a BRET2 Enh mirror, BRET 647 nM/75 nM Bandwidth and BC703 460 nM/80 nM Bandwidth filters was used for readouts. Each read was integrated for 0.5 s.
To determine compound potency (IC50), BRET ratios for each dilution series was first normalized to a % Inhibition value via Equation 1, where “S” represents Sample BRET, “B” represents Background BRET, and “T” represents Total BRET. In this equation, the background control (B) consists of NanoLuc-CRBN expressing cells and no CRBN Probe. The total BRET Ratio (T) consists of NanoLuc-CRBN expressing cells, CRBN Probe, and an amount of DMSO at a concentration equivalent to that added when testing compounds.
Following normalization, the percent inhibition values are plotted as a function of compound concentration and fit to Equation 2. […]

[4] = test 1, read-out: Supernatant (IC50) test 1
[5] = test 2, read-out: Supernatant (IC50) test 2

His-tagged recombinant human Gal-3 (hGal-3), sequence (P17931 whole entry): as the sequence (P17931 whole entry) above

IC50 [1] | IC50 [2, 4] | IC50 [2, 5] | IC50 [3] | SMILES
85 nM | 9 nM | 9 nM | 251 nM | Cc1nc([C@@H]2O[C@H](CO)[C@H](O)[C@H](n3cc(-c4cc(F)c(Cl)c(F)c4)nn3)[C@H]2OCC(=O)N2CC(COc3ccc(C(=O)Nc4ccc5c(c4)CN(C4CCC(=O)NC4=O)C5=O)nc3)C2)n(-c2cc(Cl)ccc2C(F)(F)F)n1 (some centres unmarked) [Example 26]
139 nM | 50 nM | 14 nM | 447 nM | Cc1nc([C@@H]2O[C@H](CO)[C@H](O)[C@H](n3cc(-c4cc(F)c(Cl)c(F)c4)nn3)[C@H]2OCC(=O)N2CCC(Oc3ccc(C(=O)Nc4ccc5c(c4)CN(C4CCC(=O)NC4=O)C5=O)cc3)CC2)n(-c2cc(Cl)ccc2C(F)(F)F)n1 (some centres unmarked) [Example 31]
42 nM | 19 nM | < 10 nM | 70 nM | Cc1nc([C@@H]2O[C@H](CO)[C@H](O)[C@H](n3cc(-c4cc(F)c(Cl)c(F)c4)nn3)[C@H]2OCC(=O)N[C@H]2C[C@@H](Oc3ccc(C(=O)Nc4ccc5c(c4)C(=O)N(C4CCC(=O)NC4=O)C5)nc3)C2)n(-c2cc(Cl)ccc2C(F)(F)F)n1 (some centres unmarked) [Example 23]
86 nM | 854 nM | 50 nM | 10600 nM | Cc1nc([C@@H]2O[C@H](CO)[C@H](O)[C@H](n3cc(-c4cc(F)c(Cl)c(F)c4)nn3)[C@H]2OCC(=O)N2CC(COc3ccc(C(=O)Nc4cccc5c4CN(C4CCC(=O)NC4=O)C5=O)cc3)C2)n(-c2cc(Cl)ccc2C(F)(F)F)n1 (some centres unmarked) [Example 30]
139 nM | 1700 nM | 522 nM | 2690 nM | Cc1nc([C@@H]2O[C@H](CO)[C@H](O)[C@H](n3cc(-c4cc(F)c(Cl)c(F)c4)nn3)[C@H]2OCCOc2ccc(C(=O)Nc3ccc4c(c3)CN(C3CCC(=O)NC3=O)C4=O)cc2)n(-c2cc(Cl)ccc2C(F)(F)F)n1 (some centres unmarked) [Example 25]
220 nM | 13 nM | 14 nM | 110 nM | Cc1nc([C@@H]2O[C@H](CO)[C@H](O)[C@H](n3cc(-c4cc(F)c(Cl)c(F)c4)nn3)[C@H]2OCC(=O)N[C@H]2C[C@H](Oc3ccc(C(=O)Nc4ccc5c(c4)CN(C4CCC(=O)NC4=O)C5=O)nc3)C2)n(-c2cc(Cl)ccc2C(F)(F)F)n1 (some centres unmarked) [Example 18]
312 nM | – | 40 nM | 374 nM | Cc1nc([C@@H]2O[C@H](CO)[C@H](O)[C@H](n3cc(-c4cc(F)c(Cl)c(F)c4)nn3)[C@H]2OCC(=O)N2CCC(COc3ccc(C(=O)Nc4ccc5c(c4)CN(C4CCC(=O)NC4=O)C5=O)cc3)CC2)n(-c2cc(Cl)ccc2C(F)(F)F)n1 (some centres unmarked) [Example 27]
40 nM | 35 nM | 27 nM | 1270 nM | Cc1nc([C@@H]2O[C@H](CO)[C@H](O)[C@H](n3cc(-c4cc(F)c(Cl)c(F)c4)nn3)[C@H]2OCC(=O)N2CC(COc3ccc(C(=O)Nc4ccc5c(c4)C(=O)N(C4CCC(=O)NC4=O)C5)cc3)C2)n(-c2cc(Cl)ccc2C(F)(F)F)n1 (stereo partly drawn) [Example 11, 4-((1-(2-(((2S,3R,4S,5R,6R)-2-(1-(5-Chloro-2-(trifluoromethyl)phenyl)-3-methyl-1H-1,2,4-triazol-5-yl)-4-(4-(4-chloro-3,5-difluorophenyl)-1H-1,2,3-triazol-1-yl)-5-hydroxy-6-(hydroxymethyl)tetrahydro-2H-pyran-3-yl)oxy)acetyl)azetidin-3-yl)methoxy)-N-(2-(2,6-dioxopiperidin-3-yl)-3-oxoisoindolin-5-yl)benzamide]
69 nM | – | – | > 50000 nM | Cc1nc([C@@H]2O[C@H](CO)[C@H](O)[C@H](n3cc(-c4cc(F)c(Cl)c(F)c4)nn3)[C@H]2OCC(=O)NCCOCCOCCNC(=O)c2ccc3c(c2)C(=O)N(C2CCC(=O)N(C)C2=O)C3=O)n(-c2cc(Cl)ccc2C(F)(F)F)n1 (some centres unmarked) [Example 16]
51 nM | – | – | 17 nM | Cc1nc([C@@H]2O[C@H](CO)[C@H](O)[C@H](n3cc(-c4cc(F)c(Cl)c(F)c4)nn3)[C@H]2OCC(=O)N2Cc3ccc(C(=O)Nc4ccc5c(c4)CN(C4CCC(=O)NC4=O)C5=O)cc3C2)n(-c2cc(Cl)ccc2C(F)(F)F)n1 (some centres unmarked) [Example 19]
82 nM | – | – | 780 nM | Cc1nc([C@@H]2O[C@H](CO)[C@H](O)[C@H](n3cc(-c4cc(F)c(Cl)c(F)c4)nn3)[C@H]2OCC(=O)NCCOCC(=O)Nc2ccc3c(c2)CN(C2CCC(=O)NC2=O)C3=O)n(-c2cc(Cl)ccc2C(F)(F)F)n1 (stereo partly drawn) [Example 1, 2-(((2S,3R,4S,5R,6R)-2-(1-(5-Chloro-2-(trifluoromethyl)phenyl)-3-methyl-1H-1,2,4-triazol-5-yl)-4-(4-(4-chloro-3,5-difluorophenyl)-1H-1,2,3-triazol-1-yl)-5-hydroxy-6-(hydroxymethyl)tetrahydro-2H-pyran-3-yl)oxy)-N-(2-(2-((2-(2,6-dioxopiperidin-3-yl)-1-oxoisoindolin-5-yl)amino)-2-oxoethoxy)ethyl)acetamide]

SMILES | IC50 [1] | IC50 [2, 4] | IC50 [2, 5] | IC50 [3]
Cc1nc([C@@H]2O[C@H](CO)[C@H](O)[C@H](n3cc(-c4cc(F)c(Cl)c(F)c4)nn3)[C@H]2OCC(=O)N[C@H]2C[C@@H](Oc3ccc(C(=O)Nc4ccc5c(c4)CN(C4CCC(=O)NC4=O)C5=O)cc3)C2)n(-c2cc(Cl)ccc2C(F)(F)F)n1 (stereo partly drawn) [Example 3, 4-(cis-3-(2-(((2S,3R,4S,5R,6R)-2-(1-(5-Chloro-2-(trifluoromethyl)phenyl)-3-methyl-1H-1,2,4-triazol-5-yl)-4-(4-(4-chloro-3,5-difluorophenyl)-1H-1,2,3-triazol-1-yl)-5-hydroxy-6-(hydroxymethyl)tetrahydro-2H-pyran-3-yl)oxy)acetamido)cyclobutoxy)-N-(2-(2,6-dioxopiperidin-3-yl)-1-oxoisoindolin-5-yl)benzamide] | 70 nM | < 10 nM | 48 nM | 126 nM
